PubChem BioAssay AID1963979 (Molecular Pharmacology Branch, DTP, NCI, 2024)

Tested on: 361931-004-R-J1-PDC multicell spheroid viability
Test: Anticancer human tumor 361931-004-R-J1-PDC patient-derived colon adenocarcinoma cell line growth inhibition [PI3K]
Settings: for IC50: curve of first compound; for viability, T/C: stronger effect = lower value
Procedure, shortened: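 Three cell types, namely tumor cells, endothelial cells and mesenchymal stem cells, formed each spheroid. Combinations with four PI3K inhibitors were screened at clinically achievable concentrations decreasing by half-log, and spheroid viability was recorded.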

[1] = second compound 0.0316 µM, first compound 0.0316 µM
[2] = second compound 0.0316 µM, first compound 0.1 µM
[3] = second compound 0.0316 µM, first compound 0.316 µM
[4] = second compound 0.0316 µM, first compound 1 µM
[5] = second compound 0.0316 µM, first compound 3.16 µM
[6] = second compound 0.0316 µM, first compound 10 µM
[7] = second compound 0.1 µM, first compound 0.0316 µM
[8] = second compound 0.1 µM, first compound 0.1 µM
[9] = second compound 0.1 µM, first compound 0.316 µM
[10] = second compound 0.1 µM, first compound 1 µM
[11] = second compound 0.1 µM, first compound 3.16 µM
[12] = second compound 0.1 µM, first compound 10 µM
[13] = second compound 0.316 µM, first compound 0.0316 µM
[14] = second compound 0.316 µM, first compound 0.1 µM
[15] = second compound 0.316 µM, first compound 0.316 µM
[16] = second compound 0.316 µM, first compound 1 µM
[17] = second compound 0.316 µM, first compound 3.16 µM
[18] = second compound 0.316 µM, first compound 10 µM
[19] = second compound 1 µM, first compound 0.0316 µM
[20] = second compound 1 µM, first compound 0.1 µM
[21] = second compound 1 µM, first compound 0.316 µM
[22] = second compound 1 µM, first compound 1 µM
[23] = second compound 1 µM, first compound 3.16 µM
[24] = second compound 1 µM, first compound 10 µM
[25] = second compound 3.16 µM, first compound 0.0316 µM
[26] = second compound 3.16 µM, first compound 0.1 µM
[27] = second compound 3.16 µM, first compound 0.316 µM
[28] = second compound 3.16 µM, first compound 1 µM
[29] = second compound 3.16 µM, first compound 3.16 µM
[30] = second compound 3.16 µM, first compound 10 µM
[31] = second compound 10 µM, first compound 0.0316 µM
[32] = second compound 10 µM, first compound 0.1 µM
[33] = second compound 10 µM, first compound 0.316 µM
[34] = second compound 10 µM, first compound 1 µM
[35] = second compound 10 µM, first compound 3.16 µM
[36] = second compound 10 µM, first compound 10 µM
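Further: spheroids exposed to agents for seven days before readout.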

## Cn1ncc(Cl)c1-c1cc(C(=O)NC(CN)Cc2cccc(F)c2)sc1Cl (stereo unspecified) + CC(Nc1ncnc2nc[nH]c12)c1cc2cccc(Cl)c2c(=O)n1-c1ccccc1
Second compound 0.0316 µM
  IC50: 2940 nM
Second compound 0.1 µM
  IC50: 3340 nM
Second compound 0.316 µM
  IC50: 2170 nM
Second compound 1 µM
  IC50: 2550 nM
Second compound 3.16 µM
  IC50: 2210 nM
Second compound 10 µM
  IC50: 2490 nM
[1]
  viability, T/C: 95.2%
[2]
  viability, T/C: 98.3%
[3]
  viability, T/C: 88.7%
[4]
  viability, T/C: 70.6%
[5]
  viability, T/C: 49.7%
[6]
  viability, T/C: 32.1%
[7]
  viability, T/C: 103%
[8]
  viability, T/C: 104%
[9]
  viability, T/C: 92.7%
[10]
  viability, T/C: 77.5%
[11]
  viability, T/C: 50.8%
[12]
  viability, T/C: 30.9%
[13]
  viability, T/C: 106%
[14]
  viability, T/C: 108%
[15]
  viability, T/C: 90.8%
[16]
  viability, T/C: 60.4%
[17]
  viability, T/C: 48.5%
[18]
  viability, T/C: 27.1%
[19]
  viability, T/C: 111%
[20]
  viability, T/C: 101%
[21]
  viability, T/C: 90.1%
[22]
  viability, T/C: 61.8%
[23]
  viability, T/C: 49.9%
[24]
  viability, T/C: 31%
[25]
  viability, T/C: 105%
[26]
  viability, T/C: 105%
[27]
  viability, T/C: 89.4%
[28]
  viability, T/C: 65.4%
[29]
  viability, T/C: 44.4%
[30]
  viability, T/C: 24.5%
[31]
  viability, T/C: 97.2%
[32]
  viability, T/C: 95.8%
[33]
  viability, T/C: 89.5%
[34]
  viability, T/C: 75.4%
[35]
  viability, T/C: 43%
[36]
  viability, T/C: 25%

## Cn1nccc1Nc1nccc(-c2ccn(C(CO)c3ccc(Cl)c(F)c3)c(=O)c2)n1 (stereo unspecified) + CC(Nc1ncnc2nc[nH]c12)c1cc2cccc(Cl)c2c(=O)n1-c1ccccc1
Second compound 0.0316 µM
  IC50: > 10000 nM
Second compound 0.1 µM
  IC50: > 10000 nM
Second compound 0.316 µM
  IC50: > 10000 nM
Second compound 1 µM
  IC50: > 10000 nM
Second compound 3.16 µM
  IC50: 9790 nM
Second compound 10 µM
  IC50: 5140 nM
[1]
  viability, T/C: 101%
[2]
  viability, T/C: 98.8%
[3]
  viability, T/C: 100%
[4]
  viability, T/C: 97.7%
[5]
  viability, T/C: 87.9%
[6]
  viability, T/C: 60.2%
[7]
  viability, T/C: 101%
[8]
  viability, T/C: 99.4%
[9]
  viability, T/C: 97%
[10]
  viability, T/C: 93.2%
[11]
  viability, T/C: 86.7%
[12]
  viability, T/C: 65.2%
[13]
  viability, T/C: 107%
[14]
  viability, T/C: 107%
[15]
  viability, T/C: 86.5%
[16]
  viability, T/C: 93.8%
[17]
  viability, T/C: 89.4%
[18]
  viability, T/C: 61.3%
[19]
  viability, T/C: 109%
[20]
  viability, T/C: 99.5%
[21]
  viability, T/C: 99.3%
[22]
  viability, T/C: 90.8%
[23]
  viability, T/C: 92.6%
[24]
  viability, T/C: 56.5%
[25]
  viability, T/C: 107%
[26]
  viability, T/C: 105%
[27]
  viability, T/C: 100%
[28]
  viability, T/C: 92.2%
[29]
  viability, T/C: 87.1%
[30]
  viability, T/C: 48.3%
[31]
  viability, T/C: 109%
[32]
  viability, T/C: 99.5%
[33]
  viability, T/C: 92.1%
[34]
  viability, T/C: 83.8%
[35]
  viability, T/C: 64.1%
[36]
  viability, T/C: 31.4%

## Cn1ncnc1[C@H]1c2n[nH]c(=O)c3cc(F)cc(c23)N[C@@H]1c1ccc(F)cc1 + CC(Nc1ncnc2nc[nH]c12)c1cc2cccc(Cl)c2c(=O)n1-c1ccccc1
Second compound 0.0316 µM
  IC50: > 100 nM
Second compound 0.1 µM
  IC50: > 100 nM
Second compound 0.316 µM
  IC50: > 100 nM
Second compound 1 µM
  IC50: > 100 nM
Second compound 3.16 µM
  IC50: > 100 nM
Second compound 10 µM
  IC50: > 100 nM
Second compound 0.0316 µM, first compound 0.000316 µM
  viability, T/C: 97.9%
Second compound 0.0316 µM, first compound 0.001 µM
  viability, T/C: 106%
Second compound 0.0316 µM, first compound 0.00316 µM
  viability, T/C: 102%
Second compound 0.0316 µM, first compound 0.01 µM
  viability, T/C: 99.1%
[1]
  viability, T/C: 107%
[2]
  viability, T/C: 106%
Second compound 0.1 µM, first compound 0.000316 µM
  viability, T/C: 110%
Second compound 0.1 µM, first compound 0.001 µM
  viability, T/C: 104%
Second compound 0.1 µM, first compound 0.00316 µM
  viability, T/C: 109%
Second compound 0.1 µM, first compound 0.01 µM
  viability, T/C: 103%
[7]
  viability, T/C: 101%
[8]
  viability, T/C: 108%
Second compound 0.316 µM, first compound 0.000316 µM
  viability, T/C: 107%
Second compound 0.316 µM, first compound 0.001 µM
  viability, T/C: 108%
Second compound 0.316 µM, first compound 0.00316 µM
  viability, T/C: 103%
Second compound 0.316 µM, first compound 0.01 µM
  viability, T/C: 97%
[13]
  viability, T/C: 105%
[14]
  viability, T/C: 100%
Second compound 1 µM, first compound 0.000316 µM
  viability, T/C: 99.5%
Second compound 1 µM, first compound 0.001 µM
  viability, T/C: 99%
Second compound 1 µM, first compound 0.00316 µM
  viability, T/C: 102%
Second compound 1 µM, first compound 0.01 µM
  viability, T/C: 95.2%
[19]
  viability, T/C: 97.8%
[20]
  viability, T/C: 95.2%
Second compound 3.16 µM, first compound 0.000316 µM
  viability, T/C: 102%
Second compound 3.16 µM, first compound 0.001 µM
  viability, T/C: 111%
Second compound 3.16 µM, first compound 0.00316 µM
  viability, T/C: 107%
Second compound 3.16 µM, first compound 0.01 µM
  viability, T/C: 101%
[25]
  viability, T/C: 102%
[26]
  viability, T/C: 102%
Second compound 10 µM, first compound 0.000316 µM
  viability, T/C: 102%
Second compound 10 µM, first compound 0.001 µM
  viability, T/C: 113%
Second compound 10 µM, first compound 0.00316 µM
  viability, T/C: 102%
Second compound 10 µM, first compound 0.01 µM
  viability, T/C: 100%
[31]
  viability, T/C: 102%
[32]
  viability, T/C: 98.5%
